Assay results taken from patent US20250092016A1, “COMPOUNDS AND COMPOSITIONS FOR THE TREATMENT OF CORONAVIRAL RELATED DISEASES” (priority 2021, published 2025).

Biological target: SARS-CoV-2 main protease (M^pro) (Severe acute respiratory syndrome coronavirus 2, UniProt P0DTD1)
Test: Rapid-Fire MS Biochemical Assay measuring Mpro activity (5 nM Mpro)
Details: Table 1B, Mpro inhibition, 5 μM substrate peptide, 120 min, read-out: Rapid-Fire Assay IC50

Row | Compound | IC50
1 | N#C[C@H]1CN(C23CC(F)(C2)C3)C(=O)N1c1cncc2ccccc12 (single isomer, unassigned) [Compound 139a] | < 20 nM
2 | Cn1c(C(F)(F)F)ccc(N2C[C@@H](C#N)N(c3cncc4ccccc34)C2=O)c1=O (single isomer, unassigned) [Compound 96b] | > 1000 nM
3 | COc1cc(C(F)(F)F)ccc1N1CC(C#N)N(c2cncc3ccccc23)C1=O (racemic) [Compound 12, 3-(isoquinolin-4-yl)-1-(2-methoxy-4-(trifluoromethyl)phenyl)-2-oxoimidazolidine-4-carbonitrile] | 20 to 200 nM
4 | CC(C)[C@H]1C[C@@H](N2C[C@@H](C#N)N(c3cncc4ccccc34)C2=O)C1 [Compound 123c, (S)-1-((1s,3R)-3-isopropylcyclobutyl)-3-(isoquinolin-4-yl)-2-oxoimidazolidine-4-carbonitrile] | > 1000 nM
5 | Cc1ccc(C(F)(F)F)nc1N1C[C@H](C#N)N(c2cncc3ccccc23)C1=O (single isomer, unassigned) [Compound 82a] | 20 to 200 nM
6 | N#CC1CN(c2cccc(OC(F)F)c2)C(=O)N1c1cncc2ccccc12 (racemic) [Compound 89, 1-(3-(difluoromethoxy)phenyl)-3-(isoquinolin-4-yl)-2-oxoimidazolidine-4-carbonitrile] | 200 to 1000 nM
7 | Cn1c(C(F)(F)F)ccc(N2C[C@H](C#N)N(c3cncc4ccccc34)C2=O)c1=O (single isomer, unassigned) [Compound 96a] | 20 to 200 nM
8 | CS(=O)(=O)c1ccc2cncc(N3C(=O)N(c4cccc(Cl)c4)CC3C#N)c2c1 (racemic) [Compound 37, 1-(3-chlorophenyl)-3-(6-(methylsulfonyl)isoquinolin-4-yl)-2-oxoimidazolidine-4-carbonitrile] | < 20 nM
9 | Cc1cc(N2C[C@H](C#N)N(c3cncc4ccccc34)C2=O)cc(C)n1 (single isomer, unassigned) [Compound 102a] | < 20 nM
10 | COc1cc(C#N)ccc1N1CC(C#N)N(c2cncc3ccccc23)C1=O (racemic) [Compound 19, 1-(4-cyano-2-methoxyphenyl)-3-(isoquinolin-4-yl)-2-oxoimidazolidine-4-carbonitrile] | 200 to 1000 nM
11 | N#C[C@H]1CN(C2CC3(C2)CC(F)(F)C3)C(=O)N1c1cncc2ccccc12 (single isomer, unassigned) [Compound 127a] | < 20 nM
12 | N#C[C@H]1CN(c2cc(Cl)cnn2)C(=O)N1c1cncc2ccccc12 (single isomer, unassigned) [Compound 54a] | 20 to 200 nM
13 | CC(C)[C@H]1C[C@H](N2C[C@@H](C#N)N(c3cncc4ccccc34)C2=O)C1 [Compound 123d, (S)-1-((1r,3S)-3-isopropylcyclobutyl)-3-(isoquinolin-4-yl)-2-oxoimidazolidine-4-carbonitrile] | > 1000 nM
14 | CC(C)c1ccc(N2C[C@H](C#N)N(c3cncc4ccccc34)C2=O)cn1 (single isomer, unassigned) [Compound 94a] | < 20 nM
15 | COc1ncc(C(F)(F)F)cc1N1C[C@@H](C#N)N(c2cncc3ccccc23)C1=O (single isomer, unassigned) [Compound 100b] | 200 to 1000 nM
16 | N#C[C@H]1CN(c2ccccc2F)C(=O)N1c1cncc2ccccc12 (single isomer, unassigned) [Compound 56a] | 20 to 200 nM
17 | COc1cc(Cl)cnc1N1C[C@@H](C#N)N(c2cncc3ccccc23)C1=O (single isomer, unassigned) [Compound 58b] | > 1000 nM
18 | N#C[C@H]1CN(C2CCC(F)(F)CC2)C(=O)N1c1cncc2ccccc12 (single isomer, unassigned) [Compound 138a] | < 20 nM
19 | N#CC1CN(C2CC3(C2)CC(F)(F)C3)C(=O)N1c1cncc2ccccc12 (racemic) [Compound 127, 1-(6,6-difluorospiro[3.3]heptan-2-yl)-3-(isoquinolin-4-yl)-2-oxoimidazolidine-4-carbonitrile] | < 20 nM
20 | N#C[C@@H]1CN(c2ccc(F)nc2)C(=O)N1c1cncc2ccccc12 (single isomer, unassigned) [Compound 55b] | > 1000 nM
